The text below walks through data of article PMC12292862 (Biomedicines, 2025).

One series concerns malondialdehyde (MDA). Briefly: Paw tissue oxidative stress biomarker MDA. The class given is in vivo, rat. The following applies: carrageenan rats, 200 mg/kg i.p. As to the method:
(§1) The selective pro-inflammatory cytokines were measured quantitatively using rat-specific Enzyme-Linked Immunosorbent Assay (ELISA) kits from Thermo Scientific™ (Waltham, MA, USA) with CAT. No. ERCRP for CRP; from Elabscience with Cat. No. E-EL-R2856 for TNF-α and with Cat. No. E-EL-R0011 for IL-1α; from CUSABIO, Houston, TX, USA, with Cat. No. CSB-E04640r for IL-6; and from My BioSource Co, USA, with Cat. No. MBS825017 for IL-1β, with Cat. No. MBS753621 for rat cyclooxygenase 1, and with Cat. No. MBS266603 for rat cyclooxygenase 2. Meanwhile, an ovine COX inhibitor-screening in vitro assay (item number 760111) was obtained from Cayman Chemical (Ann Arbor, MI, USA). We purchased malondialdehyde (MDA), glutathione (GSH), and superoxide dismutase (SOD) detection kits from Nanjing Jiancheng Bio-Technology Co. Ltd. (Nanjing, China).
(§2) At the end of the experiments, the rats were subjected to anesthesia with chloroform and then sacrificed. Blood was obtained via heart puncture for biochemical analysis. Following the animals’ sacrifice, the paws were taken out, decalcified, and stored in a 10% formalin solution. To prepare the tissue samples, they were sliced into thicknesses of 5 µm. Hematoxylin and eosin dyes were used to create the histology slides, which were then examined using a photomicroscope (Meiji Techno®, Iruma, Japan) for pathological alterations. The presence of inflammation was documented. Protease/phosphatase inhibitor cocktail in cold phosphate-buffered saline (1:4) (pH 7, 0.01 mol/L) (Cat. No. PPC1010, Sigma-Aldrich) was used to homogenize each rat’s paw piece in a glass homogenizer. After filtering and centrifuging the resultant homogenate for five minutes at 5000× g, oxidative stress biomarkers like GSH, SOD, and MDA were measured. The trials were repeated three times.

Another series concerns COX-2. Briefly: In vitro colorimetric COX (ovine) inhibitor-screening assay, COX-2. The series is classed as biochemical. The conditions noted are these: ovine COX-2, tested at 50, 100 and 150 µg/mL. The method, then:
The test compounds’ ability to suppress COX-1 and COX-2 was evaluated using a colorimetric COX (ovine) inhibitor-screening method (Cayman Chemical, Item Number 760111). In brief, 150 μL of assay buffer, 10 μL of heme, 10 μL of enzyme (COX-1 or COX-2), and 10 μL of compound (1 mg/mL) make up the reaction mixture. In a final volume of […], the test compounds were evaluated at doses of 50, 100, and 150 μg/mL. The cyclooxygenase peroxidase component is used in the experiment. By monitoring the appearance of oxidized N, N, […] (TMPD) at 590 nm, the peroxidase activity is measured […]. […] The following formula was used to determine the % COX inhibition: The COX inhibition activity percentage is equal to (1 − T/C ×100), where T is the inhibitor well’s absorbance and C is the starting activity’s absorbance at 100% without the inhibitor well.

Series [1] has as its system WI-38 human lung fibroblast cells. Briefly: Cell viability and cytotoxicity (MTT assay). The conditions noted are these: WI-38 cells; morphology. The class given is cell-based. As to the method: (§3) The cell lines were obtained from VACSERA—Holding Company for Biological Products and Vaccines, Cairo, Egypt. A 96-well tissue culture plate was seeded with 1 × 10^5 cells/mL (Wl-38 cells) from the human lung fibroblast cell line, adding 100 µL per well, and incubated at 37 °C with 5% CO2 for 24 h to allow the formation of a confluent monolayer. Following incubation, the growth medium was aspirated, and the cell monolayers were washed twice with wash medium to remove residual serum. Serial two-fold dilutions of the test compound were prepared in RPMI-1640 supplemented with 2% fetal bovine serum. Each dilution (100 µL) was added to the designated wells, while three wells served as negative controls and received only maintenance medium. The plate was incubated at 37 °C for an appropriate duration, during which cellular morphology was monitored for signs of cytotoxicity, including monolayer disruption, cell rounding, shrinkage, or granulation. MTT solution (5 mg/mL in PBS) was prepared, and 20 µL was added to each well. The plate was briefly agitated at 150 rpm for 5 min and then incubated for 4 h at 37 °C to allow viable cells to metabolize MTT into insoluble formazan crystals. After incubation, the supernatant was carefully removed, and 200 µL of DMSO was added to each well to solubilize the formazan. The plates were agitated again at 150 rpm for 5 min, and the absorbance was measured at 560 nm with background subtraction at 620 nm. The resulting optical density values were directly proportional to the number of viable cells.
(§4) The information was presented as the mean ± SD of the volume difference (mL) between the control and carrageenan-treated paws. One-way analysis of variance (ANOVA) was used to analyze the experimental groups’ data, and a Tukey post hoc test was then performed. p < 0.05 was considered significant. The IC50 values were calculated using Microsoft Excel by plotting a dose–response curve between compound concentration and cell viability percentage. A linear regression or logarithmic trendline was fitted to the data points, depending on the curve behavior.

Series [2] in a line: Cell viability and cytotoxicity (MTT assay). The class given is cell-based, human. The following applies: human, WI-38 human lung fibroblast cells, WI-38 cells; for IC50: 31.25 to 1000 µg/mL. As to the method: as §3, §4
On the technique in general: Tetrazolium assays rely on reduction of a dye to a coloured formazan, in cell work by metabolically active cells.

The subject of a further series is IL-6. Briefly: Serum IL-6 (ELISA) in carrageenan-injected rats. The class given is in vivo, rat. The conditions noted are these: compounds 200 mg/kg i.p., indomethacin 10 mg/kg, mean ± SD. The method, then: as §1, §2
Series [3] has as its system rat paw tissue dermal collagen. Briefly: Sirius Red staining of dermal collagen in paw tissue. The class given is in vivo. The conditions noted are these: carrageenan-injected paw; compounds 200 mg/kg i.p., indomethacin 10 mg/kg. Background: In the carrageenan paw model, swelling and tenderness develop within hours.
A further series deals with glutathione (GSH). Briefly: Paw tissue oxidative stress biomarker GSH. The conditions noted are these: carrageenan rats, 200 mg/kg i.p., result in words. The class given is in vivo, rat. As to the method: as §1, §2

In brackets after ≈: the same amount, converted by molar mass. Entries after “also recorded” stand apart in the source; their conditions may differ. Marks after values point to notes of the source that are not given here.

The viability is a read-out of living cells in per cent, often relative to untreated cells. A high value points to better survival. In general, IC50 refers to the concentration needed to halve the response being measured. With `NC1=NC2(CCCCCC2)n2nc(C(=O)Nc3ccc(S(N)(=O)=O)cc3)nc2N1` [Compound 1, 5′-Amino-N-(4-sulfamoylphenyl). -1′H-spiro[cycloheptane-1,7′-[1,2,4]triazolo[1,5-a][1,3,5] -triazine] -2′-carboxamide], the MDA level entry with malondialdehyde (MDA) is given as “notable improvements”. The “COX-2 inhibition % (mean activity)” value with COX-2 was found to be 98%. Moreover, the “concentration above which cells shrink and lose fibroblast-like structure” value in series [1] is on record as “above 125 µg/mL”. In series [2], the viability at 31.25 µg/mL is 99.9% and the half-maximal inhibitory concentration (IC50) amounted to 363 µg/mL (≈ 867 µM). In addition, in the series on IL-6, the IL-6 is 14.44 ± 0.26 ^b pg/mL. Moreover, the “dermal collagen content and distribution (Sirius Red)” value in series [3] was “normal collagen quantity and distribution; also recorded: normal in both quantity and organization”. Moreover, the GSH concentration entry in the series on glutathione (GSH) was “notable improvements”.
On to `NC1=NC2(c3ccccc3Cc3ccccc32)n2nc(C(=O)Nc3ccc(S(N)(=O)=O)cc3)nc2N1` [Compound 3], for which the MDA level entry in the series on malondialdehyde (MDA) (200 mg/kg) is on record as “close to normal”; in the series on malondialdehyde (MDA) (listed as compound 3, 200 mg/kg) it was 35.71 ± 0.51 nmol/g tissue. Also, the “COX-2 inhibition % (mean activity)” value in the series on COX-2 is 99%. The “concentration above which cells shrink and lose fibroblast-like structure” value in series [1] is “above 62.5 µg/mL”. In addition, in series [2], the viability at 31.25 µg/mL was determined as 99.8%. The same compound had a half-maximal inhibitory concentration (IC50) in series [2] of 148 µg/mL (≈ 296 µM). The IL-6 with IL-6 was 11.39 ± 0.23 pg/mL; in the series on IL-6 (listed as C3), 11.39 ± 0.23 ^b pg/mL. In series [3], the “dermal collagen content and distribution (Sirius Red)” value was “normal dermal collagenous fibers without any lesion; also recorded: complete restoration of normal dermal collagen”. In the series with glutathione (GSH), the GSH concentration result was “near-control values”.
Take `CC1(C)CC(=O)CC2(C1)N=C(N)Nc1nc(C(=O)Nc3ccc(S(N)(=O)=O)cc3)nn12` (centres unmarked) [Compound 2]: the MDA level result in the series with malondialdehyde (MDA) was “notable improvements”. For the same compound, the “COX-2 inhibition % (mean activity)” value in the series with COX-2 is 98%. Also, the “concentration above which cells shrink and lose fibroblast-like structure” value in series [1] is listed as “above 125 µg/mL”. For the same compound, in series [2], the viability at 31.25 µg/mL amounted to 99.9% and the IC50 turned out to be 328 µg/mL (≈ 734 µM). The IL-6 in the series with IL-6 was 16.14 ± 0.16 ^b pg/mL. Also, in series [3], the “dermal collagen content and distribution (Sirius Red)” value was “normal dermal collagen; also recorded: normal appearance and distribution”. For the same compound, the GSH concentration result in the series with glutathione (GSH) is “notable improvements”.
